Laboratory results taken from PubChem BioAssay (NCI).
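The compound was tested at five concentrations on cells cultured in 96-well plates, with a 48-hour exposure period. GI50 = concentration required for 50% inhibition of growth. TGI: concentration producing complete growth inhibition.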

How the values were obtained:
Assay in all cases: NCI tumour cell line growth inhibition, 48 h
[1] = tested on: SW-620 colon
[2] = tested on: DU-145 prostate
[3] = tested on: SF-295 CNS
[4] = tested on: SK-OV-3 ovarian
[5] = tested on: KM12 colon
[6] = tested on: RPMI-8226 leukemia
[7] = tested on: IGROV1 ovarian
[8] = tested on: MALME-3M melanoma
[9] = tested on: RXF 393 renal
[10] = tested on: HOP-62 NSCLC
[11] = tested on: ACHN renal
[12] = tested on: COLO 205 colon
[13] = tested on: SK-MEL-2 melanoma
[14] = tested on: HCT-116 colon
[15] = tested on: OVCAR-5 ovarian
[16] = tested on: K-562 leukemia
[17] = tested on: OVCAR-4 ovarian
[18] = tested on: SK-MEL-5 melanoma
[19] = tested on: PC-3 prostate
[20] = tested on: HCC-2998 colon
[21] = tested on: HT29 colon
[22] = tested on: SF-268 CNS
[23] = tested on: NCI/ADR-RES ovarian
[24] = tested on: SK-MEL-28 melanoma
[25] = tested on: NCI-H226 lung
[26] = tested on: EKVX NSCLC
[27] = tested on: OVCAR-8 ovarian
[28] = tested on: NCI-H460 lung
[29] = tested on: HCT-15 colon
[30] = tested on: TK-10 renal
[31] = tested on: NCI-H23 lung
[32] = tested on: MCF7 breast
[33] = tested on: LOX IMVI melanoma
[34] = tested on: MOLT-4 leukemia
[35] = tested on: SNB-75 CNS
[36] = tested on: UACC-257 melanoma
[37] = tested on: OVCAR-3 ovarian
[38] = tested on: MDA-MB-231 breast
[39] = tested on: CAKI-1 renal
[40] = tested on: HS 578T breast
[41] = tested on: 786-0 renal
[42] = tested on: SNB-19 CNS
[43] = tested on: SR leukemia
[44] = tested on: BT-549 breast
[45] = tested on: MDA-MB-435
[46] = tested on: A549 NSCLC
[47] = tested on: SF-539 CNS
[48] = tested on: NCI-H522 lung
[49] = tested on: UO-31 renal
[50] = tested on: M14 melanoma
[51] = tested on: HL-60(TB) leukemia
[52] = tested on: U251 CNS
[53] = tested on: A498 renal
[54] = tested on: T-47D breast
[55] = tested on: HOP-92 NSCLC
[56] = tested on: SN12C renal
[57] = tested on: CCRF-CEM leukemia

Work on `CCOC(=O)c1cnc2c(C)cc(C)cc2c1NCCCN(C)C` yielded a GI50 [1] of 3.43 µM, a TGI [1] of 41.7 µM and a GI50 [2] of 3.8 µM. For the same molecule, the TGI [2] was 55.8 µM, the GI50 [3] was 3.3 µM and the TGI [3] was 37.2 µM. The GI50 [4] was 3.98 µM, the TGI [4] was 32.4 µM and the GI50 [5] was 4.15 µM. For the same molecule, the TGI [5] was 27.2 µM, the GI50 [6] was 17 µM and the TGI [6] was 46.5 µM. For the same molecule, the GI50 [7] was 4.98 µM, the TGI [7] was > 100 µM and the GI50 [8] was 5.84 µM. It also gave a TGI [8] of 21.7 µM, a GI50 [9] of 5.86 µM and a TGI [9] of 25 µM. For the same molecule, the GI50 [10] was 4.66 µM, the TGI [10] was 44.2 µM and the GI50 [11] was 3.09 µM. The TGI [11] was 40.4 µM, the GI50 [12] was 1580 nM and the TGI [12] was 3.55 µM. For the same molecule, the GI50 [13] was 9.7 µM, the TGI [13] was 31.7 µM and the GI50 [14] was 2740 nM. For the same molecule, the TGI [14] was 21.4 µM, the GI50 [15] was 4.53 µM and the TGI [15] was 46.1 µM. The GI50 [16] was 4.81 µM, the TGI [16] was 35.2 µM and the GI50 [17] was 3.25 µM. For the same molecule, the TGI [17] was 14 µM, the GI50 [18] was 4.38 µM and the TGI [18] was 16.5 µM. It also gave a GI50 [19] of 4.08 µM, a TGI [19] of 85.1 µM and a GI50 [20] of 5.35 µM. The TGI [20] was 19.6 µM, the GI50 [21] was 1530 nM and the TGI [21] was 3.85 µM. It also gave a GI50 [22] of 3.91 µM, a TGI [22] of 23.9 µM and a GI50 [23] of 3.57 µM. It also gave a TGI [23] of 78.3 µM, a GI50 [24] of 13 µM and a TGI [24] of 26.1 µM. For the same molecule, the GI50 [25] was 4.12 µM, the TGI [25] was 26.8 µM and the GI50 [26] was 4.22 µM. For the same molecule, the TGI [26] was 35.6 µM, the GI50 [27] was 5.67 µM and the TGI [27] was > 100 µM. The GI50 [28] was 2570 nM, the TGI [28] was 9.14 µM and the GI50 [29] was 3.69 µM. It also gave a TGI [29] of 51.7 µM, a GI50 [30] of 3.91 µM and a TGI [30] of 88 µM. It also gave a GI50 [31] of 4.29 µM, a TGI [31] of 21.4 µM and a GI50 [32] of 2780 nM. For the same molecule, the TGI [32] was 15.7 µM, the GI50 [33] was 2830 nM and the TGI [33] was 13.6 µM. It also gave a GI50 [34] of 4.58 µM, a TGI [34] of 33.7 µM and a GI50 [35] of 2740 nM. The TGI [35] was 17.4 µM, the GI50 [36] was 10.2 µM and the TGI [36] was 26.2 µM. The GI50 [37] was 3.62 µM, the TGI [37] was 27.5 µM and the GI50 [38] was 3.1 µM. The TGI [38] was 20.4 µM, the GI50 [39] was 3.9 µM and the TGI [39] was > 100 µM. It also gave a GI50 [40] of 4.37 µM, a TGI [40] of 28.3 µM and a GI50 [41] of 4.91 µM. It also gave a TGI [41] of 25.7 µM, a GI50 [42] of 5.27 µM and a TGI [42] of 60.1 µM. For the same molecule, the GI50 [43] was 2520 nM, the TGI [43] was 8.21 µM and the GI50 [44] was 11.5 µM. For the same molecule, the TGI [44] was 39.9 µM, the GI50 [45] was 4.09 µM and the TGI [45] was 18.1 µM. For the same molecule, the GI50 [46] was 5.29 µM, the TGI [46] was > 100 µM and the GI50 [47] was 3.48 µM. For the same molecule, the TGI [47] was 14 µM, the GI50 [48] was 11.2 µM and the TGI [48] was 35 µM. The GI50 [49] was 2870 nM, the TGI [49] was > 100 µM and the GI50 [50] was 4.67 µM. For the same molecule, the TGI [50] was 17.5 µM, the GI50 [51] was 5.6 µM and the TGI [51] was 57.1 µM. It also gave a GI50 [52] of 4.66 µM, a TGI [52] of 76.2 µM and a GI50 [53] of 2850 nM. It also gave a TGI [53] of 14.9 µM, a GI50 [54] of 4.73 µM and a TGI [54] of 29.4 µM. For the same molecule, the GI50 [55] was 2080 nM, the TGI [55] was 12.5 µM and the GI50 [56] was 3.82 µM. For the same molecule, the TGI [56] was > 100 µM, the GI50 [57] was 13.6 µM and the TGI [57] was 62.7 µM.
